Test system: calcium/calmodulin (Ca/CAM)-independent cGMP PDE
Test: Phosphodiesterase activity: in vitro PDE inhibition, modified "batch" method of Thompson and Appleman
Assay type: biochemical, rabbit
Conditions: selectivity between Ca/CAM-independent cGMP PDE and cGMP-inhibited cAMP PDE (cAMP IC50 / cGMP IC50)
From the text: The calcium/calmodulin (Ca/CAM)-independent cGMP PDE and the cGMP-inhibited cAMP PDE enzymes are obtained from rabbit platelets whilst, of the four major PDE enzymes of the rat kidney, the Ca/CAM-dependent cGMP PDE (fraction I) is isolated.

SELECTIVITY RATIO | S[…] | Structure (SMILES)
>1,030 | – | CCCn1cnc2c(=O)[nH]c(-c3ccccc3OCC)nc21 [Example 1, 2-(2-Ethoxyphenyl)-9-n-propylpurin-6-one]
6,250 | – | CCCn1cnc2c(=O)[nH]c(-c3cc(S(=O)(=O)N4CCNCC4)ccc3OCC)nc21 [Example 2, 2-[2-Ethoxy-5-(1-piperazinylsulphonyl)phenyl]-9-n-propylpurin-6-one]
– | 12,500 | CCCn1cnc2c(=O)[nH]c(-c3cc(S(=O)(=O)N4CCN(C)CC4)ccc3OCC)nc21 [Example 3, 2-[2-Ethoxy-5-(4-methyl-1-piperazinylsulphonyl)phenyl]-9-n-propylpurin-6-one]
